According to patent publication US11390631B1, “Benzodiazepine derivatives as RSV inhibitors” (priority 2015, dated 2022):

test system: Human RSV-A (“Long” strain); assay: RSV-A assay: inhibition of cytopathic effect in Hep-2 cells, ATPlite readout; type: cell-based, Human respiratory syncytial virus (HRSV); conditions: human respiratory syncytial virus, HEp-2, 120 h, read-out: Human RSV-A (“Long” strain) EC50
Source text: Hep-2 cells, (originally derived from tumors grown in irradiated-cortisonised weanling rats that had been injected with epidermoid carcinoma tissue from a person's larynx, but later found to be indistinguishable from HeLa cells by PCR DNA analysis), were used for the culturing of genotype A, “Long” strain RSV. Flasks were inoculated with RSV and viral stocks were collected once cytopathic effect (CPE) was greater than 90%. Viral stocks in 25% sucrose media were snap frozen using liquid nitrogen to increase viral stability. Viral stock titers were quantified by tissue culture infectious dose 50% (TCID50) using 8,000 cells per well and 3-fold viral dilutions across a 96-well plate, cultured for 4 days. Viral stock titers were also quantified by a plaque forming unit assay, as described elsewhere.
Following extensive parameter testing, the final assay is run as follows: Hep-2 cells are seeded into the inner 60 wells of a 96-well plate at 8,000 cells per well in a volume of 50 μL using Growth Media (DMEM without phenol red, 1% L-Glut, 1% Penn/Strep, 1% nonessential amino acids, 10% heat-inactivated FBS). 2-fold serial dilutions of control and test compounds are added to the wells in duplicate in a total volume of 25 μL. Viral stock is then added to the wells at a multiplicity of infection (MOI) of 0.1 in a volume of 25 μL, bringing the total volume of each well to 100 μL. The MOI is calculated using the PFU/mL, or TCID50 if unavailable. Each 96-well plate has a control column of 6 wells with cells and virus but no compound (negative control, max CPE), a column with cells but no compound or virus (positive control, minimum CPE), and a column with no cells or virus or compound (background plate/reagent control). The control wells with cells but no virus are given an additional 25 uL of growth media containing an equal quantity of sucrose as those wells receiving the viral stock in order to keep consistent in media and volume conditions. The outer wells of the plate are filled with 125 μL of moat media (DMEM, 1% Penn/Strep) to act as a thermal and evaporative moat around the test wells. Following a 5-day incubation period, the plates are read using ATPlite (50 uL added per well), which quantifies the amount of ATP (a measure of cell health) present in each well. Assay plates are read using the Envision luminometer. In parallel, cytotoxicity is examined on an additional 96-well plate treated in an identical manner, but substituting the 25 μL of viral stock for 25 μL of growth media. […] EC50 ranges are as follows: A<0.4 μM; B 0.4-0.8 μM; C>0.8 μM and CC50 ranges are as follows: A>50 μM; B 10-50 μM; C<10 μM.

| Structure (SMILES) | EC50 |
| --- | --- |
| O=C1Nc2ccccc2C(c2ccccc2)=N[C@@H]1Nc1nnc(-c2cnc(N3CC4CCC(C3)O4)nc2)o1 [Example 166] | > 800 nM |
| O=C1Nc2ccccc2C(c2ccccc2)=N[C@@H]1Nc1nnc(-c2cnc(C3CC3)nc2N2CCOCC2)o1 [Example 167] | < 400 nM |
| O=C1Nc2ccccc2C(c2ccccc2)=N[C@@H]1Nc1nnc(-c2cnc(-n3cccn3)nc2N2CCOCC2)o1 [Example 172] | > 800 nM |
| O=C1Nc2ccccc2C(c2ccccc2)=N[C@@H]1Nc1nnc(-c2cnc(-n3cncn3)nc2N2CCOCC2)o1 [Example 173] | > 800 nM |
| N#Cc1cnc(N2CCOCC2)c(-c2nnc(N[C@H]3N=C(c4ccccc4)c4ccccc4NC3=O)o2)c1 [Example 174] | < 400 nM |
| CCc1nc(N2CCOCC2)c(-c2nnc(N[C@H]3N=C(c4ccccc4)c4ccccc4NC3=O)o2)cc1C#N [Example 176] | < 400 nM |
| Cn1ncc(-c2nnc(N[C@H]3N=C(c4ccccc4)c4ccccc4NC3=O)o2)c1N1CCOCC1 [Example 177] | > 800 nM |
| Cn1ncc(N2CCOCC2)c1-c1nnc(N[C@H]2N=C(c3ccccc3)c3ccccc3NC2=O)o1 [Example 178] | 400 to 800 nM |
| O=C1Nc2ccccc2C(c2ccccc2)=N[C@@H]1Nc1nnc(-c2sc3ncccc3c2N2CCOCC2)o1 [Example 180] | < 400 nM |
| Cn1cc(-c2nnc(N[C@H]3N=C(c4ccccc4)c4ccccc4NC3=O)o2)c(N2CCOCC2)n1 [Example 181] | < 400 nM |
| O=C1Nc2ccccc2C(c2ccccc2)=N[C@@H]1Nc1nnc(-c2sc(Br)cc2N2CCOCC2)o1 [Example 182] | < 400 nM |
| N#Cc1ccc(-c2nnc(NC3N=C(c4ccccc4)c4ccccc4NC3=O)o2)s1 (stereo not shown) [Example 183] | < 400 nM |
| O=C1Nc2ccccc2C(c2ccccc2)=NC1Nc1nnc(-c2ccc(N3CCCC3)cc2)o1 (stereo not shown) [Example 184] | 400 to 800 nM |
| COc1cnc(-c2nnc(NC3N=C(c4ccccc4)c4ccccc4NC3=O)o2)c(F)c1 (stereo not shown) [Example 185] | > 800 nM |
| Cn1nnc(-c2ccc(-c3nnc(NC4N=C(c5ccccc5)c5ccccc5NC4=O)o3)cc2)n1 (stereo not shown) [Example 186] | > 800 nM |
| Cc1nc2ccc(-c3nnc(NC4N=C(c5ccccc5)c5ccccc5NC4=O)o3)cc2s1 (stereo not shown) [Example 187] | 400 to 800 nM |
| CC(C)c1nnc(NC2N=C(c3ccccc3)c3ccccc3NC2=O)o1 (stereo not shown) [Example 188] | > 800 nM |
| CC(C)(C)c1nnc(NC2N=C(c3ccccc3)c3ccccc3NC2=O)o1 (stereo not shown) [Example 189] | > 800 nM |
| CCCc1nnc(NC2N=C(c3ccccc3)c3ccccc3NC2=O)o1 (stereo not shown) [Example 190] | > 800 nM |
| COCc1nnc(NC2N=C(c3ccccc3)c3ccccc3NC2=O)o1 (stereo not shown) [Example 191] | > 800 nM |

| Structure (SMILES) | EC50 |
| --- | --- |
| O=C1Nc2ccccc2C(c2ccccc2)=NC1Nc1nnc(CCC(F)(F)F)o1 (stereo not shown) [Example 192] | > 800 nM |
| N#CCCc1nnc(NC2N=C(c3ccccc3)c3ccccc3NC2=O)o1 (stereo not shown) [Example 193] | > 800 nM |
| CS(=O)(=O)Cc1nnc(NC2N=C(c3ccccc3)c3ccccc3NC2=O)o1 (stereo not shown) [Example 194] | > 800 nM |
| CC1(c2nnc(NC3N=C(c4ccccc4)c4ccccc4NC3=O)o2)CC1 (stereo not shown) [Example 195] | > 800 nM |
| O=C1Nc2ccccc2C(c2ccccc2)=NC1Nc1nnc(C2CCC2)o1 (stereo not shown) [Example 196] | > 800 nM |
| O=C1Nc2ccccc2C(c2ccccc2)=NC1Nc1nnc(C2CCCC2)o1 (stereo not shown) [Example 197] | > 800 nM |
| O=C1Nc2ccccc2C(c2ccccc2)=NC1Nc1nnc([C@H]2CCCO2)o1 (stereo partly shown) [Example 198] | > 800 nM |
| O=C1Nc2ccccc2C(c2ccccc2)=NC1Nc1nnc(CCc2ccccc2)o1 (stereo not shown) [Example 199] | > 800 nM |
| Cc1nc(-c2nnc(NC3N=C(c4ccccc4)c4ccccc4NC3=O)o2)ccc1C#N (stereo not shown) [Example 200] | 400 to 800 nM |
| CN1C(=O)C(Nc2nnc(-c3ccc(F)cc3)o2)N=C(c2ccccc2)c2ccccc21 (stereo not shown) [Example 201] | > 800 nM |
| O=C1Nc2ccccc2C(c2ccccc2)=NC1Nc1nnc(-c2ccc(-n3ccc(C(F)(F)F)n3)cc2)o1 (stereo not shown) [Example 202] | > 800 nM |
| O=C1Nc2ccccc2C(c2ccccc2)=NC1Nc1nnc(CC(F)(F)F)o1 (stereo not shown) [Example 203] | > 800 nM |
| CC1(C)C[C@@H]1c1nnc(NC2N=C(c3ccccc3)c3ccccc3NC2=O)o1 (stereo partly shown) [Example 205] | > 800 nM |
| CC1(C)CC(c2nnc(NC3N=C(c4ccccc4)c4ccccc4NC3=O)o2)C1 (stereo not shown) [Example 206] | > 800 nM |
| O=C1Nc2ccccc2C(c2ccccc2)=NC1Nc1nnc([C@@H]2CCCO2)o1 (stereo partly shown) [Example 207] | > 800 nM |
| CC(C)(Cc1ccccc1)c1nnc(NC2N=C(c3ccccc3)c3ccccc3NC2=O)o1 (stereo not shown) [Example 208] | > 800 nM |
| CN(c1nnc(-c2ccc(F)cc2)o1)C1N=C(c2ccccc2)c2ccccc2NC1=O (stereo not shown) [Example 209] | > 800 nM |
| CN1CCN(c2ccc(-c3nnc(NC4N=C(c5ccccc5)c5ccccc5NC4=O)o3)cc2)CC1 (stereo not shown) [Example 210] | > 800 nM |
| O=C1Nc2ccccc2C(c2ccccc2)=NC1Nc1nnc(-c2ccc(-n3cccn3)nc2)o1 (stereo not shown) [Example 211] | > 800 nM |
| O=C1Nc2ccccc2C(c2ccccc2)=NC1Nc1nnc(-c2cccc(-n3ccnc3)c2)o1 (stereo not shown) [Example 212] | > 800 nM |

| Structure (SMILES) | EC50 |
| --- | --- |
| CC(C)(O)c1nnc(NC2N=C(c3ccccc3)c3ccccc3NC2=O)o1 (stereo not shown) [Example 213] | > 800 nM |
| O=C1Nc2ccccc2C(c2ccccc2)=NC1Nc1nnc(C2CC(F)(F)C2)o1 (stereo not shown) [Example 214] | > 800 nM |
| O=C1Nc2ccccc2C(c2ccccc2)=NC1Nc1nnc(C2CCOC2)o1 (stereo not shown) [Example 215] | > 800 nM |
| O=C1Nc2ccccc2C(c2ccccc2)=NC1Nc1nnc(-c2ccc(-n3cncn3)c(F)c2)o1 (stereo not shown) [Example 216] | 400 to 800 nM |
| Cc1cc(-c2nnc(NC3N=C(c4ccccc4)c4ccccc4NC3=O)o2)ccc1-n1cncn1 (stereo not shown) [Example 217] | 400 to 800 nM |
| Cc1cc(-n2cncn2)ccc1-c1nnc(NC2N=C(c3ccccc3)c3ccccc3NC2=O)o1 (stereo not shown) [Example 218] | > 800 nM |
| COc1cc(-c2nnc(NC3N=C(c4ccccc4)c4ccccc4NC3=O)o2)ccc1-n1cnc(C)c1 (stereo not shown) [Example 219] | > 800 nM |
| O=C1Nc2ccccc2C(c2ccccc2)=NC1Nc1nnc(-c2ccc(OC3CCOCC3)cc2)o1 (stereo not shown) [Example 220] | > 800 nM |
| O=C1Nc2ccccc2C(c2ccccc2)=NC1Nc1nnc(C2CCNC2)o1 (stereo not shown) [Example 221] | > 800 nM |
| O=C1Nc2ccccc2C(c2ccccc2)=NC1Nc1nnc(C2CC3(CCNCC3)C2)o1 (stereo not shown) [Example 222] | > 800 nM |
| CC1(c2nnc(NC3N=C(c4ccccc4)c4ccccc4NC3=O)o2)CCNC1 (stereo not shown) [Example 223] | > 800 nM |
| O=C1Nc2ccccc2C(c2ccccc2)=NC1Nc1nnc(-c2ccc(-n3cncn3)nc2)o1 (stereo not shown) [Example 225] | > 800 nM |
| O=C1Nc2ccccc2C(c2ccccc2)=NC1Nc1nnc(-c2ccccc2-c2ccncc2)o1 (stereo not shown) [Example 226] | > 800 nM |
| O=C1Nc2ccccc2C(c2ccccc2)=NC1Nc1nnc([C@@H]2CCCN2C2CCNCC2)o1 (stereo partly shown) [Example 227] | > 800 nM |
| CN1CCC(N2CCC[C@H]2c2nnc(NC3N=C(c4ccccc4)c4ccccc4NC3=O)o2)CC1 (stereo partly shown) [Example 228] | > 800 nM |
| COCCOc1ccccc1-c1nnc(NC2N=C(c3ccccc3)c3ccccc3NC2=O)o1 (stereo not shown) [Example 229] | > 800 nM |
| CC1(Nc2nnc(-c3ccc(F)cc3)o2)N=C(c2ccccc2)c2ccccc2NC1=O (stereo not shown) [Example 230] | > 800 nM |
| O=C1Nc2ccccc2C(c2ccccc2)=NC1Nc1nnc(-c2ccc(-n3ccnc3)cc2)o1 (stereo not shown) [Example 231] | < 400 nM |
